Measurements taken from patent publication US12616200B2, “Herbicidal combinations comprising diflufenican and mesotrione” (priority 2020, dated 2026).

Tests used:
[1] = tested on: AMATU WR-2013-044 (resistant against HPPD-inhibitor herbicides and atrazine (PSII-inhibitor)); experiment: Greenhouse pre-emergence herbicidal activity, AMATU WR-2013-044; format: in vivo, Amaranthus tuberculatus; conditions: 3 weeks, mean of 6
[2] = tested on: AMATU WR-2012-017-08 (resistant against HPPD-inhibitor herbicides and atrazine (PSII-inhibitor)); experiment: Greenhouse pre-emergence herbicidal activity, AMATU WR-2012-017-08; format: in vivo, Amaranthus tuberculatus; conditions: 3 weeks, mean of 6

SMILES	Activity [%] against AMATU WR-2013-044 ([1]; rate 75 g/ha)	Activity [%] against AMATU WR-2013-044 ([1]; rate 150 g/ha)	Activity [%] against AMATU WR-2012-017-08 ([2]; rate 75 g/ha)	Activity [%] against AMATU WR-2012-017-08 ([2]; rate 150 g/ha)	Activity [%] against AMATU WR-2013-044 ([1]; rate 52 g/ha)	Activity [%] against AMATU WR-2013-044 ([1]; rate 105 g/ha)	Activity [%] against AMATU WR-2012-017-08 ([2]; rate 52 g/ha)	Activity [%] against AMATU WR-2012-017-08 ([2]; rate 105 g/ha)
O=C(Nc1ccc(F)cc1F)c1cccnc1Oc1cccc(C(F)(F)F)c1 [DFF, 2′,4′-difluoro-2-[3-(trifluoromethyl)phenoxy]pyridine-3-carboxanilide]	69.2%	80.8%	66.7%	86.3%	–	–	–	–
CS(=O)(=O)c1ccc(C(=O)C2C(=O)CCCC2=O)c([N+](=O)[O-])c1 [MST, 2-[4-(methylsulfonyl)-2-nitrobenzoyl]cyclohexane-1,3-dione]	–	–	–	–	70.0%	76.7%	59.2%	84.2%
